We go through one compound from patent US9675563B2, “Method for adjunctive treatment of cancer metastasis by using lycogen” (ASIA-PACIFIC BIOTECH DEVELOPING, INC., priority 2015, dated 2017).

What all share (type): cell-based, human
In test [1] the test system is EA.hy926 cell line. Briefly: Cancer cell invasion assay (Matrigel, fluorescent microscope). Conditions: 25 μg/mL 5-FU, 24 hours, compared to 0 μg/ml group. The protocol: In one embodiment, the EA.hy926 cell line was used to analyze the ability of Lycogen on inhibiting cancer cell invasion. EA.hy926 cell line was treated with various concentration of Lycogen (0, 2, 5, and 10 μM) or 25 μg/mL 5-FU. Twenty-four hours after treatment, the Matrigel was used to analyze the cell invasion, and fluorescent microscope was used to observe the cancer cell invasion.
Cells were cultured on the plate, which was covered by a semipermeable membrane, to mimic the condition of cell invasion in vivo. The basal membrane was interrupted in invasive tumor cell to invade adjacent tissue. The cell culture plate was scratched by a sterile tip or cotton thread to create an acellular space. The cell lines were treated with different treatments, and then the cell number inside the membrane was counted.

The test system of test [2] is HUVEC cells. Description: Cell migration analysis under the angiogenesis assay conditions. Conditions: 5-FU alone. How it is done: (§1) The in vitro angiogenesis assay was a model test used for studying anti-angiogenic nutrient or drugs, and the assay was highly convenient and fast. […] H2O2 was used to induce tubeformation in matrigel to evaluate the effect of Lycogen on the index of angiogenesis. HUVEC cells were dissolved in 10% serum-containing culture media, and then HUVEC cells were seeded into matrigel pre-coated 24-well plates in a density of […] per well. Except for the control group HUVEC cells in all other groups were treated with solvent vehicle, 5-FU, 5-FU plus 10 μM Lycogen, 5-FU plus 30 μM Lycogen, and 5-FU plus 50 μM of Lycogen, respectively. Each assay under the same experimental condition was performed in duplicate and this experiment was repeated twice. Phase contrast photomicrographs were taken by a phase contrast microscope with 100× magnification at 6 hours after the treatment.
In another example, the effect of Lycogen on cell migration was analyzed under the same conditions of the aforementioned angiogenesis analysis.

Test [3] has as its system EA.hy926 cell line. Description: EA.hy926 cell migration analysis (migration areas). As to conditions: 25 μg/mL 5-FU, 24 hours. How it is done: In another example, the effect of Lycogen on cell migration in human umbilical vein endothelial cell line (EA.hy926 cell line) was analyzed. The cell line was treated with different concentrations of Lycogen (0, 2, 5, and 10 μM) or 25 μg/mL 5-FU, and the EA.hy926 cell migration was analyzed 24 hours after treatments to calculate the migration areas.

Test [4] has as its system HUVEC cells. Briefly: In vitro angiogenesis assay (H2O2-induced tubeformation in matrigel). As to conditions: 5-FU alone, 6 hours after treatment. How it is done:
as §1

In the case of `O=c1[nH]cc(F)c(=O)[nH]1` [5-FU], the invaded cell number result in test [1] is “significantly decreased”. Further, the cell migration entry in test [2] is “did inhibit”. Moreover, the “cancer cell migration (migration areas)” value in test [3] is “had the ability of inhibiting cancer cell migration”. Besides, the cell tubeformation result in test [4] is reported as “did inhibit”.
